{"source": "paper PMC5522529", "about": "“Mechanisms of Paradoxical Activation of AMPK by the Kinase Inhibitors SU6656 and Sorafenib” (Cell Chemical Biology, 2017)", "key": {"[1]": {"molecular_target": "T1, AMPK-α1 (WT) (Homo sapiens, UniProt Q13131)", "T1 construct": "we expressed FLAG-tagged full-length AMPK-α1 either as the WT or the AT mutant; expressed in transfected cells; host or cells: HEK293", "experiment": "AMPK activity of FLAG-tagged AMPK-α1 (WT) expressed in HEK293 cells", "format": "cell-based", "details": "for AMPK activity and Thr172 phosphorylation: WT FLAG-α1, A769662 300 μM, berberine 300 μM, phenformin 10 mM, troglitazone 100 μM, oligomycin 1 μM, SU6656 100 μM", "source_text": "(B) Western blotting of the same preparations as in (A). […] (D) Allosteric activation of WT and mutant α1β1γ1 complexes by MT 63-78, curve fitting as for (C). […] (E) Allosteric activation of WT and mutant α1β1γ1 complexes by AMP. Data were fitted to the equation for activation/inactivation by AMP ([Gowans et al., 2013]). […] (F) Activation of WT and AA mutant by various AMPK activators in HEK293 cells. […] FLAG-tagged complexes were isolated by immunoprecipitation and AMPK activity determined (mean ± SEM, n = 2).\nWe next expressed the FLAG-tagged WT or AA mutant of AMPK-α1 by transient transfection in HEK293 cells, treated with various agents, and measured AMPK activity in anti-FLAG immunoprecipitates. In Figure 4F, the results are expressed as absolute activities and are accompanied by blots showing Thr172 phosphorylation.\nThe α1-KD was precipitated using anti-FLAG and endogenous AMPK complexes using anti-α1 antibody, and activity determined. […] (B) Western blots (n = 2) using the indicated antibodies; samples from experiment in (A). (C) DNAs encoding FLAG-tagged AMPK-α1 (WT or AT mutant) were expressed by transient transfection in HEK293 cells, the cells treated with increasing concentrations of SU6656 for 1 hr, AMPK complexes precipitated with anti-FLAG, and activity measured."}, "[2]": {"molecular_target": "T2, AMPK-γ2 (WT) (Homo sapiens, UniProt Q9UGJ0)", "T2 construct": "expressed in transfected cells; host or cells: Flp-In T-REx 293 (HEK293), tetracycline-inducible", "experiment": "AMPK activity in HEK293 cells expressing WT AMPK-γ2", "format": "cell-based", "details": "1 hr", "source_text": "The next possibility was that, like several other AMPK-activating drugs, SU6656 inhibits mitochondrial ATP synthesis, and thus activates AMPK indirectly by increasing cellular AMP/ADP. To test this, we used cell lines inducibly expressing either WT AMPK-γ2 or an AMP/ADP-resistant R531G (RG) mutant ([Hawley et al., 2010]). […] There were no effects of SU6656 on cellular oxygen uptake, unlike berberine. Subsequent addition of the uncoupler 2,4-dinitrophenol (DNP), which prevents the respiratory chain from being limited by ADP supply, increased oxygen uptake identically in control and SU6656-treated cells but had no effect following berberine, as expected for a complex I inhibitor (Figure S2).\n(§1) (B) WT or RG cells were treated as in (A) and nucleotides extracted for analysis (mean ± SD, n = 3). […] (E) (See also Figure S2) Time courses of cellular oxygen uptake before and after addition of the indicated concentrations of sorafenib (SO, μM), SU6656 (100 μM) or phenformin (PHEN, 10 mM) (mean ± SEM, n = 4). (F) Effect of various concentrations of sorafenib or phenformin (10 mM) on activation (top, mean ± SEM, n = 3) or phosphorylation (bottom) of AMPK in cells expressing wild-type AMPK-γ2 (WT) or the R531G mutant AMPK-γ2 (RG). In all panels, asterisks show significant differences from DMSO controls (ns, not significant). In (B), daggers (†) show significant differences between results in WT and RG cells. *p < 0.05, **p < 0.01, ***p < 0.001, ****p < 0.0001, ^††††p < 0.0001.\nHEK-293 cells stably expressing tetracycline-inducible FLAG-tagged human AMPK-γ2, or an R531G mutant, were generated by introducing the corresponding DNAs into Flp-In™ T-REx™ 293 cells ([Auciello et al., 2014]). Expression of the FLAG-tagged constructs was induced for 48 hr using tetracycline (1 μg.ml^-1) prior to addition of compounds under test. Transient transfections were carried out 36-48 hr prior to experiments, using Fugene 6 according to manufacturers’ instructions."}, "[3]": {"test_system": "HEK293 cells", "experiment": "Cellular oxygen uptake", "format": "cell-based, human", "description": "as §1\nCellular oxygen consumption rate was measured using a Seahorse XF24 Extracellular Flux Analyser according to manufacturers’ instructions, as specified previously ([Hawley et al., 2010]).\nOxygen uptake of HEK-293 cells measured under basal conditions\n(open bars), after addition of the indicated concentration of SU6656 or berberine (300 µM) (gray bars), then after subsequent addition of the uncoupler 2,4-dinitrophenol (DNP, hatched bars, 100 µM) […]\ndifferent before and after addition of SU6656 or berberine, while […]\nsubsequent addition of DNP."}, "[4]": {"molecular_target": "T3, endogenous full-length α1 complexes (Homo sapiens, UniProt Q13131)", "T3 construct": "endogenous in cells", "T3 sequence (Q13131 whole entry, the tested form may be a part)": "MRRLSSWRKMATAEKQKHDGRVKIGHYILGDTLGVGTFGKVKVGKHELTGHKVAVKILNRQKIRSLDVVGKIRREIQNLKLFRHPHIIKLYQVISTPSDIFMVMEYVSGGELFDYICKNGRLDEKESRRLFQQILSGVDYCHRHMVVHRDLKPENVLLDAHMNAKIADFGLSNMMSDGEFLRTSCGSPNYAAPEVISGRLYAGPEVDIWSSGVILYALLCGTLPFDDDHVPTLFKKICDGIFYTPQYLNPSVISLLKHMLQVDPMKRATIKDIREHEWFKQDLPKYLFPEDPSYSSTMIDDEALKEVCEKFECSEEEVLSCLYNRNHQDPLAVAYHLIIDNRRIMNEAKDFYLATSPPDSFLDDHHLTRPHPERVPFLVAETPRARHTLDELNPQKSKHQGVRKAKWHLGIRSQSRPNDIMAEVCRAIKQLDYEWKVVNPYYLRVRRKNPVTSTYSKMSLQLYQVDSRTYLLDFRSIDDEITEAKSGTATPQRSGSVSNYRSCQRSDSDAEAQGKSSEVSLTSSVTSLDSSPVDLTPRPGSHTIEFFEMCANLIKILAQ", "T3 sequence (P54619 whole entry partner, the tested form may be a part)": "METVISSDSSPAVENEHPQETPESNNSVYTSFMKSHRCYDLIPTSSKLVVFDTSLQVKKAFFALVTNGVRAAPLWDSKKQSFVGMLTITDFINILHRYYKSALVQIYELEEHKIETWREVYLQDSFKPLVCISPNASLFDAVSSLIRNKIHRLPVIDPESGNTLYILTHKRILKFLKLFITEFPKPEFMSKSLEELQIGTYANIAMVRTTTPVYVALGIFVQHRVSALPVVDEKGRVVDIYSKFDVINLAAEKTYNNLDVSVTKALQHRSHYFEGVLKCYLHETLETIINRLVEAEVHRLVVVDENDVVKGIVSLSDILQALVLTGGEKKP", "experiment": "Activity of endogenous full-length α1 complexes in HEK293 cells", "format": "cell-based", "details": "1 hr", "source_text": "We next expressed an FLAG-tagged α1 kinase domain (α1-KD, residues 1–312) by transient transfection in HEK293 cells, treated the cells with various AMPK activators, and then assayed both the expressed α1-KD (precipitated using anti-FLAG) and endogenous full-length α1 complexes (precipitated using anti-α1 antibodies recognizing an epitope outside the α1-KD). […] This was also observed with A23187, as expected since this ionophore increases intracellular Ca^2+ and activates the alternate upstream kinase CaMKK2.\nThe α1-KD was precipitated using anti-FLAG and endogenous AMPK complexes using anti-α1 antibody, and activity determined. Results (mean ± SD, n = 2) are expressed relative to activities in DMSO controls. (B) Western blots (n = 2) using the indicated antibodies; samples from experiment in (A). (C) DNAs encoding FLAG-tagged AMPK-α1 (WT or AT mutant) were expressed by transient transfection in HEK293 cells, the cells treated with increasing concentrations of SU6656 for 1 hr, AMPK complexes precipitated with anti-FLAG, and activity measured. Results (mean ± SD, n = 3) are expressed relative to the DMSO control. […] Results (mean ± SD, n = 3) are expressed relative to the DMSO control. **p < 0.01, ***p < 0.001, ****p < 0.0001, ^†††p < 0.001; ns, not significant."}}}
{"smiles": "CN(C)S(=O)(=O)c1ccc2c(c1)/C(=C/c1cc3c([nH]1)CCCC3)C(=O)N2", "note": "[SU6656]", "values": [{"measurement": "AMPK activity", "setting": "[1]; WT FLAG-α1 (comparison with AT mutant), 1 hr", "value": "robustly activated"}, {"measurement": "increase in activity and Thr172 phosphorylation", "setting": "[1]; WT FLAG-α1, 100 μM, relative to DMSO control", "value": 3, "unit": "fold"}, {"measurement": "AMPK activity and Thr172 phosphorylation", "setting": "[1]; 1 hr", "value": "activated AMPK and caused Thr172 phosphorylation"}, {"measurement": "AMPK activity", "setting": "[2]", "value": "activated AMPK and enhanced Thr172 phosphorylation in both WT and RG cells"}, {"measurement": "cellular oxygen uptake", "setting": "[3]", "value": "no effects"}, {"measurement": "kinase activity / Thr172 phosphorylation", "setting": "[4]", "value": "increased kinase activity"}]}
{"smiles": "COc1ccc2cc3[n+](cc2c1OC)CCc1cc2c(cc1-3)OCO2", "note": "[berberine]", "values": [{"measurement": "AMPK activity and Thr172 phosphorylation", "setting": "[1]; 1 hr", "value": "activated AMPK and caused Thr172 phosphorylation"}, {"measurement": "AMPK activity", "setting": "[2]", "value": "activated AMPK in the WT"}, {"measurement": "kinase activity / Thr172 phosphorylation", "setting": "[4]", "value": "doing this with the endogenous complexes"}]}
{"smiles": "CNC(=O)c1cc(Oc2ccc(NC(=O)Nc3ccc(Cl)c(C(F)(F)F)c3)cc2)ccn1", "note": "[sorafenib]", "values": [{"measurement": "concentrations that rapidly inhibited cellular oxygen uptake", "setting": "[3]", "value": "3 to 30", "unit": "µM"}]}
